Test results reported in publication PMC7385131, “Mechanisms of activation and desensitization of full-length glycine receptor in lipid nanodiscs” (Nature Communications, 2020).

Experiments:
[1] = target: T1, zebrafish GlyRα1 (full-length glycine receptor α1) (Danio rerio, UniProt O93430); test: cryo-EM structure in lipid nanodiscs ([…] Å); TEVC in oocytes; type: binding
T1 construct: gene glra1; homopentamer in asolectin/MSP1E3D1 nanodiscs
T1 sequence (O93430 1-444): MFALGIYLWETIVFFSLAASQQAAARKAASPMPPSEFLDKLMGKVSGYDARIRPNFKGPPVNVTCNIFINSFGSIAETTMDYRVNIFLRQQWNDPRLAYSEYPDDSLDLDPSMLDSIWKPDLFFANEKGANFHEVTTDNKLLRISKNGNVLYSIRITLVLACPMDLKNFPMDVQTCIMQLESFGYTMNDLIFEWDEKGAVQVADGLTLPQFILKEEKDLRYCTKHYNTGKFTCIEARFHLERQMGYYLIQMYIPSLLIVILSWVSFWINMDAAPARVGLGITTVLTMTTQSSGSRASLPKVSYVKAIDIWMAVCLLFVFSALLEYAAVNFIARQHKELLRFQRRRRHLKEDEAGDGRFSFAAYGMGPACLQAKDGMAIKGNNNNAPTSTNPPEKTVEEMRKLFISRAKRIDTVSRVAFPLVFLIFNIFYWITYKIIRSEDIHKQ

[2] = target: T1, zebrafish GlyRα1 (full-length glycine receptor α1); test: cryo-EM structure in lipid nanodiscs ([…] Å) with glycine; TEVC block in oocytes; type: binding
[3] = target: the molecule itself; test: cryo-EM structure; GlyR in asolectin nanodiscs (MSP1E3D1), ~0.1 mg/ml, buffer A (200 mM NaCl, 20 mM HEPES pH 8.0); no ligand, 5 mM glycine, 5 mM glycine + 3 mM picrotoxin, 1 mM glycine + 0.5 uM ivermectin, or 0.1 mM glycine + 30 uM ivermectin; C5 symmetry imposed

`NCC(=O)O` [Gly, glycine] was tested, and the “cryo-EM structure in lipid nanodiscs (3.47 Å); TEVC in oocytes” value [1] was 3D reconstructions reveal an additional small density in the canonical neurotransmitter-binding pocket wedged at the subunit interface in the ECD.

For `C=C(C)[C@@H]1[C@H]2OC(=O)[C@@H]1[C@]1(O)C[C@H]3OC34C(=O)O[C@H]2[C@@]41C.CC(C)(O)[C@@H]1[C@H]2OC(=O)[C@@H]1[C@]1(O)C[C@H]3OC34C(=O)O[C@H]2[C@@]41C` (stereo partly drawn) [PTX, picrotoxin], the “cryo-EM structure in lipid nanodiscs (3.51 Å) with glycine; TEVC block in oocyte” value [2] was “an additional density was seen in the pore at the mid-level of M2 nestled between Gly2′ and Leu9′”.

B1: full-length zebrafish glycine receptor α1 (GlyRα1) (receptor, UniProt O93430 25-444, looked up)
chain: ARKAASPMPPSEFLDKLMGKVSGYDARIRPNFKGPPVNVTCNIFINSFGSIAETTMDYRVNIFLRQQWNDPRLAYSEYPDDSLDLDPSMLDSIWKPDLFFANEKGANFHEVTTDNKLLRISKNGNVLYSIRITLVLACPMDLKNFPMDVQTCIMQLESFGYTMNDLIFEWDEKGAVQVADGLTLPQFILKEEKDLRYCTKHYNTGKFTCIEARFHLERQMGYYLIQMYIPSLLIVILSWVSFWINMDAAPARVGLGITTVLTMTTQSSGSRASLPKVSYVKAIDIWMAVCLLFVFSALLEYAAVNFIARQHKELLRFQRRRRHLKEDEAGDGRFSFAAYGMGPACLQAKDGMAIKGNNNNAPTSTNPPEKTVEEMRKLFISRAKRIDTVSRVAFPLVFLIFNIFYWITYKIIRSEDIHKQ
modifications: N-glycan at Asn62
notes: Glycine receptor subunit alpha-1, zebrafish, full-length gene, codon-optimized; residues numbered as in UniProt O93430; Homopentamer; the model begins at Pro31; No thrombin cleavage is told; also called full-length glycine α1 receptor; GlyR–Apo; source: Sf9 cells (baculovirus, pFastBac1), purified (TALON, Superose 6), reconstituted into asolectin nanodiscs with MSP1E3D1
B1 was tested, and the “stoichiometry N” value [3] was 5.
